What was measured:
TNF-α = target: T1, TNF-α (Mus musculus, UniProt P06804); assay: Inhibition of TNF-α mediated trypanolysis (T. brucei) by antibodies and carbohydrates; type: cell-based; details: inhibitor 10 μg/ml, TNF-α 1.000 U/ml
T1 sequence (P06804 80-235 limits assumed): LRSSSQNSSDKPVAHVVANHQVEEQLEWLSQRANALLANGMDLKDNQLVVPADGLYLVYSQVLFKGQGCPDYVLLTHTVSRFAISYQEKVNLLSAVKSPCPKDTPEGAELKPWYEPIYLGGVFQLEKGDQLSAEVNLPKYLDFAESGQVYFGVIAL
Method: (§1) Purified parasites were resuspended at 4×10^6/ml PSG (PBS, consisting of 2.13 g NaCl, 8.45 g Na2HPO4 and 0.43 g NaH2PO4 per liter, supplemented with 1% glucose). […] of suspension were mixed with […] of different concentrations of CF, CCF-1 or TNF-α in 96-well culture plate. Quantification of the trypanolysis was based on the determination of parasite viability using Ethidium homodimer (EthD-1, Molecular Probes). EthD-1 is excluded by intact plasma membrane of live parasites. However, it enters the cells with damaged membrane and undergoes enhancement of fluorescence on binding nucleic acids, thereby producing a bright red fluorescence in dead cells. Briefly, after 4.5 hrs incubation at 30° C., […] of […] EthD-1 was added to the wells. The mean fluorescence intensity of triplicate cultures (±SD) was recorded 30 min later in a cytofluorimeter (Cytofluor II, PerSeptive Biosystems) using excitation/emission filters at 530±25/645±40 nm. A set of control was included in each experiments: (A) a parasite-free control to account for possible background fluorescence (B) a control of 100% lysis, prepared by treating the parasites with […] 2% saponin for about 10 min before adding EthD-1 (C) a control in which the trypanolytic component was replaced by PSG was considered as 0% lysis. (B) and (C) were used to build a standard curve and the % lysis in test samples was estimated by linear regression. In some assays parasite lysis was assessed by light microscopy counting the remaining parasites. Background lysis, i.e. lysis of trypanosomes within 5 hrs incubation at 30° C. in absence of lytic molecules, never exceeded 5–10%.
(§2) For inhibition experiments CCF-1 or TNF-α were pre-incubated 1 hr at 30° C. with 10 […] of antibodies (anti-CCF1, anti-TIP or irrelevant mAb) or sugars (chitobiose, cellobiose, Sigma). All experiments were repeated at least 3 times.

CCF-1 [1] = assay: Inhibition of CCF-1 mediated trypanolysis (T. brucei) by antibodies and carbohydrates; type: cell-based, Eisenia foetida; details: for CCF-1 mediated trypanolysis % Inhibition / CCF-1 mediated trypanolysis % Lysis: inhibitor 10 μg/ml, CCF-1 4 μg/ml
Method: as §1, §2

[2] = tested on: trypanolytic activity (T. cruzi) of CF; assay: Inhibition of the trypanolytic activity (T. cruzi) of CF by antibodies and carbohydrates; type: cell-based
Method: as §1, §2

CCF-1 [3] = assay: Inhibition of the cytolytic activity of CCF-1 (L929) by antibodies and carbohydrates; type: cell-based, Eisenia foetida
Method: To test whether the cytolytic activity of CCF-1 is mediated by a similar or a different domain as that one utilized for the trypanolytic activity, CCF-1 was preincubated with N,N′-diacetylchitobiose or anti-TNF/TIP antibodies and tested in the L-929 lysis assay (21). […] This is in sharp contrast to the cytolytic activity of TNF-α that is not influenced by anti-TNF/TIP antibodies nor by N,N′-diacetylchitobiose.

[4] = tested on: Trypanosoma brucei AnTat 1.1E; assay: Trypanolytic assay on T. brucei; type: cell-based
Method: Pleiomorphic and monomorphic Trypanosoma brucei AnTat 1.1E clone were provided by Dr N. Van Meirvenne (Institute of Tropical Medicine, Antwerp, Belgium).
as §1

anti-CCF-1 mAb 12C9 = assay: Dot spot assay of tryptic peptides with anti-CCF-1 mAb; type: binding
Method: The separated peptides obtained from HPLC purification of the tryptic digest of CCF-1 were analyzed for reactivity with the anti-CCF-1 mAb via a dot spot assay. […] The obtained sequence is shown in SEQ ID NO:1.

T. cruzi = assay: Trypanolytic activity on T. cruzi; type: cell-based; details: trypomastigote versus epimastigote forms
Method: as §1, with “(B) and (C) were used to build a standard curve and the % lysis in test samples was estimated by linear regression.” left out, “Background lysis, i.e. lysis of trypanosomes within 5 hrs incubation at 30° C. in absence of lytic molecules, never exceeded 5–10%.” left out

[5] = inhibitor 10 μg/ml, CF final dilution 1:4.000
[6] = Experiment 1, inhibitor 10 μg/ml, CCF-1 4 μg/ml, L929

With O=C[C@H](O)[C@@H](O)[C@H](O[C@@H]1O[C@H](CO)[C@@H](O)[C@H](O)[C@H]1O)[C@H](O)CO [Cellobiose] the “TNF-α mediated trypanolysis % Lysis” value (TNF-α) was 41%, the inhibition at 10 µg/mL (TNF-α) was 0% and the “inhibition of the trypanolytic activity of CCF-1 (in words)” value (CCF-1 [1]) was “does not influence the trypanolytic activity of CCF-1”. The “CCF-1 mediated trypanolysis % Inhibition” value (CCF-1 [1]) was 0%, the “CCF-1 mediated trypanolysis % Lysis” value (CCF-1 [1]) was 49% and the inhibition at 10 µg/mL ([2]; Trypanosoma cruzi, inhibitor 10 μg/ml, CF final dilution 1:4.000, read-out: CF-1 mediated trypanolysis % Inhibition) was 0%. The “CF-1 mediated trypanolysis % Lysis” value [2, 5] was 67%.

With CC(=O)N[C@H]1[C@H](O[C@H]2[C@H](O)[C@@H](NC(C)=O)C(O)O[C@@H]2CO)O[C@H](CO)[C@@H](O)[C@@H]1O (stereo partly shown) [N,N′-diacetylchitobiose] the “TNF-α mediated trypanolysis % Inhibition” value (TNF-α) was 100%, the “TNF-α mediated trypanolysis % Lysis” value (TNF-α) was 0% and the “inhibition of the interaction of CCF-1 with L-929 cells (in words)” value (CCF-1 [3]; CCF-1 preincubated with inhibitor) was “completely inhibited”. The “CCF-1 mediated cytolysis % Inhibition” value (CCF-1 [3]; [6]) was 100%, the “CCF-1 mediated cytolysis % Lysis” value (CCF-1 [3]; [6]) was 0% and the “inhibition of the trypanolytic activity of CCF-1 (in words)” value (CCF-1 [1]) was “found to inhibit also the trypanolytic activity of CCF-1”. The “CCF-1 mediated trypanolysis % Inhibition” value (CCF-1 [1]) was 73%, the “CCF-1 mediated trypanolysis % Lysis” value (CCF-1 [1]) was 3% and the “inhibition of the trypanolytic activity of rCCF-1 (in words)” value (CCF-1 [1]; rCCF-1, FIG. 3A, 3B) was “inhibits potently”. For the same compound, the “inhibition of the T. cruzi lytic activity of CF (in words)” value [2] was “substantially decreased”, the “CF-1 mediated trypanolysis % Inhibition” value [2, 5] was 70% and the “CF-1 mediated trypanolysis % Lysis” value [2, 5] was 19%.

For “NH2-SGEIDIIETIGNR-COOH (chain 1 H-SGEIDIIETIGNR-OH; chain 2 H-SGEIDIIETIGNR-OH; listed as Eisenia foetida) [CCF-1/TIP]”, the “trypanolytic activity on T. brucei (in words)” value [4] was “trypanolytic in a time- and dose-dependent way”, the “trypanolytic activity compared with the TNF/TIP peptide” value ([4]; FIG. 1) was “reproducibly more trypanolytic than the TNF/TIP peptide” and the “reactivity with the anti-CCF-1 mAb 12C9 in dot spot assay” value (anti-CCF-1 mAb 12C9) was “weakly positive”.

For TNF-α, the “TNF-α mediated trypanolysis % Lysis” value ([4]; TNF-α 1.000 U/ml, no inhibitor) was 41%, the “binding to chitobiose / binding capacity towards N,N′-diacetylchitobiose” value (Binding to chitobiose) was “bind to immobilized chitobiose” and the “T. cruzi forms on which trypanolytic activity was recorded” value (T. cruzi) was “only be recorded on the trypomastigote but not the epimastigote forms”.

From US7060790B1, “Peptides and nucleic acids derived from Eisenia foetida and the use thereof” (Vlaams Interuniversitair Instituut voor Biotechnologie VZW, priority 1997, dated 2006)
